Target: T1, Recombinant human GR (Homo sapiens, UniProt P04150)
T1 construct: purchased Invitrogen P2816
T1 sequence (P04150 1-777): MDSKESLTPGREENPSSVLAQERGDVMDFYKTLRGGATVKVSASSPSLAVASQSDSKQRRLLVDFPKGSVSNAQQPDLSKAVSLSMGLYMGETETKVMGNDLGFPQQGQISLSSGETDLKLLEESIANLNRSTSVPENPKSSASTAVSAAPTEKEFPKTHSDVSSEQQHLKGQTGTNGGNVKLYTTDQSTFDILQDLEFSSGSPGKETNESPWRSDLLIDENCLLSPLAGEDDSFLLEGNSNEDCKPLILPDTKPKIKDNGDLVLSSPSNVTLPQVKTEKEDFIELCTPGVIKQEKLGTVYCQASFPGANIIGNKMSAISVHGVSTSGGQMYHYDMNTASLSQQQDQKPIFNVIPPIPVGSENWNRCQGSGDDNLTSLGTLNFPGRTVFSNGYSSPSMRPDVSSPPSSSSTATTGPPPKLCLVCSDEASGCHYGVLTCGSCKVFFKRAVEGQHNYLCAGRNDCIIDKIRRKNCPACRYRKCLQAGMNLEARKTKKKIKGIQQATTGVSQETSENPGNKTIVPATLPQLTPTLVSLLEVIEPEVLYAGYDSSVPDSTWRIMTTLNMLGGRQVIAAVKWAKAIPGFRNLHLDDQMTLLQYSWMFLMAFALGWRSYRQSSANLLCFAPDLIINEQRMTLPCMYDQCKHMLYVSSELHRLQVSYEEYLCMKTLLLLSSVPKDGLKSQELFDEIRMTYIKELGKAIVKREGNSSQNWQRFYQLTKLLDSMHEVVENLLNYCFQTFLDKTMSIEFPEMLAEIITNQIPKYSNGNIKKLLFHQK
Experiment: GR competitor assay (receptor competitor assay by fluorescence polarization, Invitrogen kit P2816)
Conditions: 20 μM test compound solution (10 μL per well plus 5 μL 4×GS1 and 5 μL 4×GR); relative to 2 mM dexamethasone positive control; ratios of 100% or more are indicated by 100%; read-out: GR Binding ratio (%)
Procedure: In order to evaluate a binding activity to GR, a receptor competitor assay was carried out by a fluorescence polarization method. In the assay, a GR competitor assay kit (manufactured by Invitrogen, cat No. P2816) was used, and a procedure was carried out according to the protocol attached to the kit. Hereinafter, the specific method will be described.
GR screening buffer: A buffer containing 10 mM potassium phosphate (pH 7.4), 20 mM sodium molybdate (Na2MoO4), 0.1 mM ethylene diamine tetraacetic acid (EDTA), 5 mM dithiothreitol (DTT), 0.1 mM stabilizing peptide and 2% dimethylsulfoxide was prepared.
4×GS1 solution: Fluormone™ GS1, which is a fluorescent glucocorticoid ligand, was diluted with GR screening buffer, whereby a 4 nM solution was prepared.
4×GR solution: Recombinant human GR was diluted with GR screening buffer, whereby a 16 nM solution was prepared.
After a test compound was dissolved in dimethylsulfoxide, the resulting solution was diluted with GR screening buffer, whereby a 20 μM test compound solution was prepared.
1) The test compound solution was added in an amount of 10 μL into each well of a 384-well plate, and then, 4×GS1 solution and 4×GR solution were added in an amount of 5 μL into each well, respectively.
2) The plate was incubated in a dark place at room temperature for 2 to 4 hours.
3) By using a multimode plate reader, Analyst™ HT (manufactured by LJL Biosystems), fluorescence polarization of each well was measured. As the blank, a well containing GR screening buffer in place of the test compound and 4×GS1 solution was used.
4) The same procedure as that in the above 1) to 3) was carried out except that GR screening buffer was used in place of the test compound solution, and the obtained result was taken as the negative control.
5) The same procedure as that in the above 1) to 3) was carried out except that 2 mM dexamethasone was used in place of the test compound solution, and the obtained result was taken as the positive control.
A GR binding ratio (%) was calculated from the following equation. GR binding ratio(%)=100×[1−(fluorescence polarization of test compound solution−fluorescence polarization of positive control solution)/(fluorescence polarization of negative control solution fluorescence polarization of positive control solution)] (Test Results and Discussion)

SMILES	inhibition at 20 µM (stock) [%]
COc1cc(OC(=O)c2ccc(C)nc2)ccc1-c1ccc2c(c1COC(=O)c1ccc(C)s1)C(C)=CC(C)(C)N2 [Compound 1-2, 6-[2-Methoxy-4-(6-methylpyridin-3-ylcarbonyloxy)phenyl]-5-(5-methylthiophen-2-ylcarbonyloxymethyl)-2,2,4-trimethyl-1,2-dihydroquinoline]	93
COc1cc(OC(=O)c2ccoc2)ccc1-c1ccc2c(c1COC(=O)c1ccc(C)cc1)C(C)=CC(C)(C)N2 [Compound 1-3, 6-[4-(Furan-3-ylcarbonyloxy)-2-methoxyphenyl]-5-(4-methylbenzoyloxymethyl)-2,2,4-trimethyl-1,2-dihydroquinoline]	100
COc1cc(OC(=O)c2ccccc2Cl)ccc1-c1ccc2c(c1COC(=O)c1ccc(C)cc1)C(C)=CC(C)(C)N2 [Compound 1-6, 6-[4-(2-Chlorobenzoyloxy)-2-methoxyphenyl]-5-(4-methylbenzoyloxymethyl)-2,2,4-trimethyl-1,2-dihydroquinoline]	100
COc1ccccc1C(=O)Oc1ccc(-c2ccc3c(c2COC(=O)c2ccc(C)cc2)C(C)=CC(C)(C)N3)c(OC)c1 [Compound 1-7, 6-[2-Methoxy-4-(2-methoxybenzoyloxy)phenyl]-5-(4-methylbenzoyloxymethyl)-2,2,4-trimethyl-1,2-dihydroquinoline]	100
COc1cc(OC(=O)c2cccnc2)ccc1-c1ccc2c(c1COC(=O)c1ccc(C)cc1)C(C)=CC(C)(C)N2 [Compound 1-8, 5-(4-Methylbenzoyloxymethyl)-6-[2-methoxy-4-(pyridin-3-ylcarbonyloxy)phenyl]-2,2,4-trimethyl-1,2-dihydroquinoline]	100
COc1cc(OC(=O)c2ccco2)ccc1-c1ccc2c(c1COC(=O)c1ccc(C)cc1)C(C)=CC(C)(C)N2 [Compound 1-10, 6-[4-(Furan-2-ylcarbonyloxy)-2-methoxyphenyl]-5-(4-methylbenzoyloxymethyl)-2,2,4-trimethyl-1,2-dihydroquinoline]	100
CCCC(=O)Oc1ccc(-c2ccc3c(c2COC(=O)c2ccc(C)s2)C(C)=CC(C)(C)N3)c(OC)c1 [Compound 1-11, 6-(4-Butyryloxy-2-methoxyphenyl)-5-(5-methylthiophen-2-ylcarbonyloxymethyl)-2,2,4-trimethyl-1,2-dihydroquinoline]	100
COc1ccccc1C(=O)Oc1ccc(-c2ccc3c(c2COC(=O)c2ccc(C)s2)C(C)=CC(C)(C)N3)c(OC)c1 [Compound 1-12, 6-[2-Methoxy-4-(2-methoxybenzoyloxy)phenyl]-5-(5-methylthiophen-2-ylcarbonyloxymethyl)-2,2,4-trimethyl-1,2-dihydroquinoline]	93
COc1cc(OC(=O)c2cccnc2)ccc1-c1ccc2c(c1COC(=O)c1ccc(C)s1)C(C)=CC(C)(C)N2 [Compound 1-13, 6-[2-Methoxy-4-(pyridin-3-ylcarbonyloxy)phenyl]-5-(5-methylthiophen-2-ylcarbonyloxymethyl)-2,2,4-trimethyl-1,2-dihydroquinoline]	96
COc1cc(OC(=O)c2ccco2)ccc1-c1ccc2c(c1COC(=O)c1ccc(C)s1)C(C)=CC(C)(C)N2 [Compound 1-14, 6-[4-(Furan-2-ylcarbonyloxy)-2-methoxyphenyl]-5-(5-methylthiophen-2-ylcarbonyloxymethyl)-2,2,4-trimethyl-1,2-dihydroquinoline]	96
COc1cc(OC(=O)c2ccccc2Cl)ccc1-c1ccc2c(c1COC(=O)c1ccc(C)s1)C(C)=CC(C)(C)N2 [Compound 1-15, 6-[4-(2-Chlorobenzoyloxy)-2-methoxyphenyl]-5-(5-methylthiophen-2-ylcarbonyloxymethyl)-2,2,4-trimethyl-1,2-dihydroquinoline]	91
COc1cc(OC(=O)c2cccc(Cl)c2)ccc1-c1ccc2c(c1COC(=O)c1ccc(C)s1)C(C)=CC(C)(C)N2 [Compound 1-16, 6-[4-(3-Chlorobenzoyloxy)-2-methoxyphenyl]-5-(5-methylthiophen-2-ylcarbonyloxymethyl)-2,2,4-trimethyl-1,2-dihydroquinoline]	85
COc1cc(OC(=O)c2ccc(Cl)cc2)ccc1-c1ccc2c(c1COC(=O)c1ccc(C)s1)C(C)=CC(C)(C)N2 [Compound 1-17, 6-[4-(4-Chlorobenzoyloxy)-2-methoxyphenyl]-5-(5-methylthiophen-2-ylcarbonyloxymethyl)-2,2,4-trimethyl-1,2-dihydroquinoline]	84
COc1cc(OC(=O)c2ccccc2)ccc1-c1ccc2c(c1COC(=O)c1ccc(C)s1)C(C)=CC(C)(C)N2 [Compound 1-18, 6-(4-Benzoyloxy-2-methoxyphenyl)-5-(5-methylthiophen-2-ylcarbonyloxymethyl)-2,2,4-trimethyl-1,2-dihydroquinoline]	91
COc1cc(OC(=O)c2ccccc2C)ccc1-c1ccc2c(c1COC(=O)c1ccc(C)s1)C(C)=CC(C)(C)N2 [Compound 1-19, 6-[2-Methoxy-4-(2-methylbenzoyloxy)phenyl]-5-(5-methylthiophen-2-ylcarbonyloxymethyl)-2,2,4-trimethyl-1,2-dihydroquinoline]	89
COc1cc(OC(=O)c2ccccc2F)ccc1-c1ccc2c(c1COC(=O)c1ccc(C)s1)C(C)=CC(C)(C)N2 [Compound 1-20, 6-[4-(2-Fluorobenzoyloxy)-2-methoxyphenyl]-5-(5-methylthiophen-2-ylcarbonyloxymethyl)-2,2,4-trimethyl-1,2-dihydroquinoline]	90
COc1ccc(C(=O)Oc2ccc(-c3ccc4c(c3COC(=O)c3ccc(C)s3)C(C)=CC(C)(C)N4)c(OC)c2)cc1 [Compound 1-22, 6-[2-Methoxy-4-(4-methoxybenzoyloxy)phenyl]-5-(5-methylthiophen-2-ylcarbonyloxymethyl)-2,2,4-trimethyl-1,2-dihydroquinoline]	91
COc1cc(OC(=O)c2cncnc2)ccc1-c1ccc2c(c1COC(=O)c1ccc(C)s1)C(C)=CC(C)(C)N2 [Compound 1-23, 6-[2-Methoxy-4-(pyrimidin-5-ylcarbonyloxy)phenyl]-5-(5-methylthiophen-2-ylcarbonyloxymethyl)-2,2,4-trimethyl-1,2-dihydroquinoline]	94
COc1cc(OC(=O)c2ccsc2)ccc1-c1ccc2c(c1COC(=O)c1ccc(C)s1)C(C)=CC(C)(C)N2 [Compound 1-24, 6-[2-Methoxy-4-(thiophen-3-ylcarbonyloxy)phenyl]-5-(5-methylthiophen-2-ylcarbonyloxymethyl)-2,2,4-trimethyl-1,2-dihydroquinoline]	94
COc1cc(OC(=O)c2ccoc2)ccc1-c1ccc2c(c1COC(=O)c1ccc(C)s1)C(C)=CC(C)(C)N2 [Compound 1-25, 6-[4-(Furan-3-ylcarbonyloxy)-2-methoxyphenyl]-5-(5-methylthiophen-2-ylcarbonyloxymethyl)-2,2,4-trimethyl-1,2-dihydroquinoline]	94
COC(=O)c1cccc(C(=O)Oc2ccc(-c3ccc4c(c3COC(=O)c3ccc(C)s3)C(C)=CC(C)(C)N4)c(OC)c2)c1 [Compound 1-26, 6-[2-Methoxy-4-(3-methoxycarbonylbenzoyloxy)phenyl]-5-(5-methylthiophen-2-ylcarbonyloxymethyl)-2,2,4-trimethyl-1,2-dihydroquinoline]	94

Reference: patent US8563551B2, “Method for preventing or treating a disease related to the glucocorticoid receptor” (Santen Pharmaceutical Co., Ltd., priority 2006, dated 2013)
